Assay results as given in ChEMBL document CHEMBL1201862, “PubChem BioAssay data set” (2004).
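Tested at 5 concentrations; 48 h exposure; 96-well plates; endpoints linearly interpolated, else capped at highest concentration. Abbreviation: GI50, concentration required for 50% inhibition of growth.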 Active and inactive are the calls of the source. No stated cut-off is given here; in the data, active = GI50 up to about 1.1 µM and inactive = higher.

Legend:
Assay in all cases: growth of human tumour cells (NCI), 48 h
SNB-19 = tested on: SNB-19
UACC-62 = tested on: UACC-62
RPMI-8226 = tested on: RPMI-8226
MOLT-4 = tested on: MOLT-4
NCI-H226 = tested on: NCI-H226
HT-29 = tested on: HT-29
KM12 = tested on: KM12
OVCAR-8 = tested on: OVCAR-8
786-0 = tested on: 786-0
SK-MEL-28 = tested on: SK-MEL-28
MDA-MB-231 = tested on: MDA-MB-231
SNB-75 = tested on: SNB-75
MCF7 = tested on: MCF7
DU-145 = tested on: DU-145
MDA-N = tested on: MDA-N
T47D = tested on: T47D
SF-539 = tested on: SF-539
SF-268 = tested on: SF-268
HOP-62 = tested on: HOP-62
TK-10 = tested on: TK-10
CAKI-1 = tested on: CAKI-1
SK-MEL-5 = tested on: SK-MEL-5
HL-60 = tested on: HL-60
OVCAR-4 = tested on: OVCAR-4
MDA-MB-435 = tested on: MDA-MB-435
SN12C = tested on: SN12C
UACC-257 = tested on: UACC-257
UO-31 = tested on: UO-31
LOX IMVI = tested on: LOX IMVI
HCT-15 = tested on: HCT-15
HCT-116 = tested on: HCT-116
U-251 = tested on: U-251
SK-OV-3 = tested on: SK-OV-3
RXF 393 = tested on: RXF 393
SF-295 = tested on: SF-295
M14 = tested on: M14
A549 = tested on: A549
Malme-3M = tested on: Malme-3M
IGROV-1 = tested on: IGROV-1
EKVX = tested on: EKVX
HCC 2998 = tested on: HCC 2998
ACHN = tested on: ACHN
A498 = tested on: A498
NCI/ADR-RES = tested on: NCI/ADR-RES
COLO 205 = tested on: COLO 205
OVCAR-5 = tested on: OVCAR-5
PC-3 = tested on: PC-3
SW-620 = tested on: SW-620
NCI-H522 = tested on: NCI-H522
NCI-H460 = tested on: NCI-H460
K562 = tested on: K562
OVCAR-3 = tested on: OVCAR-3
Hs-578T = tested on: Hs-578T
CCRF-CEM = tested on: CCRF-CEM
NCI-H23 = tested on: NCI-H23
SR = tested on: SR
SK-MEL-2 = tested on: SK-MEL-2
HOP-92 = tested on: HOP-92

Question: What does the source list for `O=C(CCCN1CCC2(CC1)OC(=O)N(c1ccccc1)C2=O)c1ccccc1`?
Answer: GI50 (SNB-19): > 100 µM (inactive); GI50 (UACC-62): > 100 µM (inactive); GI50 (RPMI-8226): > 100 µM (inactive); GI50 (MOLT-4): > 100 µM (inactive); GI50 (NCI-H226): > 100 µM (inactive); GI50 (HT-29): > 100 µM (inactive); GI50 (KM12): > 100 µM (inactive); GI50 (OVCAR-8): > 100 µM (inactive); GI50 (786-0): > 100 µM (inactive); GI50 (SK-MEL-28): > 100 µM (inactive); GI50 (MDA-MB-231): 35.5 µM (inactive); GI50 (SNB-75): > 100 µM (inactive); GI50 (MCF7): > 100 µM (inactive); GI50 (DU-145): > 100 µM (inactive); GI50 (MDA-N): > 100 µM (inactive); GI50 (T47D): > 100 µM (inactive); GI50 (SF-539): > 100 µM (inactive); GI50 (SF-268): > 100 µM (inactive); GI50 (HOP-62): > 100 µM (inactive); GI50 (TK-10): > 100 µM (inactive); GI50 (CAKI-1): > 100 µM (inactive); GI50 (SK-MEL-5): > 100 µM (inactive); GI50 (HL-60): > 100 µM (inactive); GI50 (OVCAR-4): > 100 µM (inactive); GI50 (MDA-MB-435): > 100 µM (inactive); GI50 (SN12C): > 100 µM (inactive); GI50 (UACC-257): > 100 µM (inactive); GI50 (UO-31): 27.8 µM (inactive); GI50 (LOX IMVI): > 100 µM (inactive); GI50 (HCT-15): > 100 µM; GI50 (HCT-116): > 100 µM (inactive); GI50 (U-251): > 100 µM (inactive); GI50 (SK-OV-3): > 100 µM (inactive); GI50 (RXF 393): > 100 µM (inactive); GI50 (SF-295): > 100 µM (inactive); GI50 (M14): > 100 µM (inactive); GI50 (A549): > 100 µM (inactive); GI50 (Malme-3M): > 100 µM (inactive); GI50 (IGROV-1): > 100 µM (inactive); GI50 (EKVX): > 100 µM (inactive); GI50 (HCC 2998): > 100 µM (inactive); GI50 (ACHN): > 100 µM (inactive); GI50 (A498): > 100 µM (inactive); GI50 (NCI/ADR-RES): > 100 µM (inactive); GI50 (COLO 205): > 100 µM (inactive); GI50 (OVCAR-5): > 100 µM (inactive); GI50 (PC-3): > 100 µM (inactive); GI50 (SW-620): > 100 µM (inactive); GI50 (NCI-H522): > 100 µM (inactive); GI50 (NCI-H460): > 100 µM (inactive); GI50 (K562): > 100 µM (inactive); GI50 (OVCAR-3): > 100 µM (inactive); GI50 (Hs-578T): > 100 µM (inactive); GI50 (CCRF-CEM): > 100 µM (inactive); GI50 (NCI-H23): > 100 µM (inactive); GI50 (SR): > 100 µM (inactive); GI50 (SK-MEL-2): > 100 µM (inactive); GI50 (HOP-92): > 100 µM (inactive)
